PMC7614683, “A small molecule PI3Kα activator for cardioprotection and neuroregeneration” (Nature, 2023)

Key:
[1] = tested on: rat sciatic nerve; assay: pAkt generation in exposed rat sciatic nerves; format: in vivo; conditions: direct injection or bathing, 1938 5 μM, 30 min
Method: To assess if 1938 could induce pAkt generation in exposed rat sciatic nerves, adult male Sprague Dawley rats (>250g; n=2) were anaesthetised using isoflurane, the left sciatic nerve was exposed and injected with 2 μl vehicle (sterile dH2O) or 1938 (5 μM in sterile dH2O). Meanwhile the right sciatic nerve was exposed and bathed in 250 μl of vehicle (sterile dH2O) or 1938 (5 μM in sterile dH2O). Each animal received one vehicle and one compound treatment. The treatments were left on for 30 min prior to washing the bathed nerves with sterile PBS and culling via sodium pentobarbital injection according to local regulations. Nerves were then harvested, washed in fresh 4°C PBS and stored in a fresh vial before snap freezing in liquid nitrogen. Frozen sciatic nerves were homogenised in RIPA buffer supplemented with protease and phosphatase inhibitors using a mortar and pestle homogeniser. The subsequent crude lysates were centrifuged at 10,000xg for 10 min at 4°C, the supernatant harvested and stored at -80°C prior to automated western blot (Wes) analysis for pAkt and controls (Extended Data Fig. 9a; bottom panel).

[2] = tested on: A549 cells; assay: pAKT S473 western blot / Wes, A549; format: cell-based, human
Method: Unless otherwise indicated, western blotting was performed with ECL detection. For time course studies, A549 cells were seeded at 250,000 cells per well in 6-well plates in RPMI (10% FBS + 1 mM Na-Pyruvate + 1% P/S) and allowed to adhere overnight. The next day they were serum-starved for 4 h prior to treatment with 100 nM insulin or 5 μM 1938, for the indicated time (5 min to 48 h) at 37°C, 5% CO2. For 1938 titration assays in MEFs, cells were seeded at 150,000 cells per well in 6-well plates and allowed to adhere overnight. The next day they were serum-starved for 4 h prior to treatment with insulin (1 μM), 1938 (0.2 to 30 μM, final DMSO concentration of 1.5%) or inhibitors (final DMSO concentration of ≤1.5%) for 15 min at 37°C, 5% CO2. Cells were washed twice with cold PBS and lysed using cold RIPA buffer (25 mM Tris.HCl pH 7.6, 150 mM NaCl, 1% NP-40, 1% sodium deoxycholate, 0.1% SDS supplemented with protease/phosphatase inhibitor cocktail from Merck). To remove cell debris, homogenates were spun at 13,000 rpm for 15 min at 4°C and the supernatant fraction recovered. Protein concentration was determined by colorimetric assay (BCA assay, Promega). Protein extracts were resolved by SDS-PAGE, transferred to nitrocellulose membranes, and incubated overnight at 4°C with specific antibodies as follows: anti-vinculin (Sigma #V9131) and the following antibodies from Cell Signaling Technology (CST): pAKT-S473 (CST #9271), pS6-S240/244 (CST #2215), pPRAS40-T246 (CST #2640) and total S6 (CST #2317). Primary ntibodies were used at 1:1000 dilution except anti-vinculin (1:10000). Secondary antibodies are also from Cell Signalling Technology: Anti rabbit IgG, HRP linked Antibody (CST #7074S), Anti mouse IgG, HRP linked Antibody (CST #7076S). Raw and uncropped blots are shown in Supplementary Fig. 1.
A549 cells were seeded at 200,000 cells per well in 24-well plates in DMEM (10% FBS + 1% P/S) and allowed to adhere overnight. The next day, cells were washed once with PBS before addition of serum-free DMEM for 24 h. […]

[3] = tested on: PI3Kα-KO MEFs transiently transfected with PIK3CA constructs; assay: pAKT S473 in PI3Kα-KO MEFs transfected with p110α-WT or p110α-mutants; format: cell-based, mouse; conditions: 1938 5 μM
Source text: Flag-PIK3R1 (a kind gift of Neil Vasan), PIK3CA-WT and mutant PIK3CA (D603K, L1006R, F1016S and L1006R/F1016S) were cloned into pcDNA3.4TOPO. pcDNA3-eGFP was used as a control for transfection efficiency and is available on Addgene repository upon request (Plasmid #13031). The mutations in PIK3CA were introduced by site-directed mutagenesis according to published commercial protocols using NEBuilder HiFi DNA Assembly Master Mix (NEB E2621). For each mutation, a pair of primers were designed to incorporate a mutation within the gene, with the resulting PCR products containing a 20 bp overlap and the desired mutations. The DpnI-treated and purified PCR products were combined with the linearized vector and treated with the NEBuilder HiFi DNA Assembly Master Mix. Following transformation, single colonies were grown and purified with QIAprep spin Miniprep kit (Qiagen 27106). All plasmids were sequenced for verification.
eGFP, Flag-PIK3R1, PIK3CA-WT and mutant PIK3CA (D603K, L1006R, F1016S, L1006R/F1016S) plasmids were used for transient transfection. Pik3ca-KO MEFs cells were seeded at 70-80% confluency in 6-well plate at 100,000 cells per well. […]

SMILES: CCN1CCN(c2ccc(Nc3cc(Nc4cccc5c4N(C(C)=O)CC5)ccn3)cc2)CC1 [Compound 1938]
- pAKT in exposed sciatic nerves [1]: pAKT induction
- time of peak pAKT^S473 activation ([2]; 1938 5 μM, A549 and MCF10A): 30 min
- time to induction of pAKT^S473 ([2]; 1938 5 μM, A549 and MCF10A): 5 min
- pAKT^S473 increase ([2]; A549): BYL719-sensitive increase in pAKT^S473
- pAKT^S473 stimulation after expression of WT PI3Kα [3]: restored 1938-mediated pAKT^S473 stimulation
- pAKT^S473 induction after expression of 1938-resistant p110α-mutants ([3]; D603K, L1006R, F1016S, L1006R/F1016S): none of the p110α-mutants resistant to 1938-activation in in vitro kinase assays showed a response
